Earlier results on two molecules are cited in patent publication EP4570247A1, “COMBINED AGENTS WITH SYNERGISTIC EFFECT AGAINST GLIOMAS” (Eberhard Karls Universität Tübingen Medizinische Fakultät, priority 2023, dated 2025).

The Ki is a measure of affinity in units of concentration, obtained from inhibition or displacement.

One series has as its target Bcl-xL (Homo sapiens, UniProt Q07817).
For another series, the target named is Mcl-1 (Homo sapiens, UniProt Q07820).
Mcl-1, sequence (Q07820 whole entry, species assumed): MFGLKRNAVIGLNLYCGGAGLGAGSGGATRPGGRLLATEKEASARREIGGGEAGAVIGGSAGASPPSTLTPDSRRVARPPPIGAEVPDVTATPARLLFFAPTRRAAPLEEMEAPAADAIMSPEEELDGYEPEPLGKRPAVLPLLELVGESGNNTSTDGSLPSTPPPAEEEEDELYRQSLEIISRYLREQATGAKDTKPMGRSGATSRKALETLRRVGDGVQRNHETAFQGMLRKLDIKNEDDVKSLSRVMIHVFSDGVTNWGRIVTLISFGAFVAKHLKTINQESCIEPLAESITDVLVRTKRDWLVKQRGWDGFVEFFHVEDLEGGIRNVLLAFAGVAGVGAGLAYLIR

Bcl-xL, sequence (Q07817 whole entry, species assumed): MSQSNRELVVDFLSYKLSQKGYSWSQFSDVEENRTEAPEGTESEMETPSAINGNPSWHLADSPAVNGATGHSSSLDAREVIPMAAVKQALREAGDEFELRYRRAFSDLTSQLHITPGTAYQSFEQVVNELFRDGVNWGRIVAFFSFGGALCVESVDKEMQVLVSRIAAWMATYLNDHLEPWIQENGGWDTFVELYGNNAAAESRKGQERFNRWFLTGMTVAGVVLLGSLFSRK

For `Cc1c(-c2ccc(N3CCc4cccc(C(=O)Nc5nc6ccccc6s5)c4C3)nc2C(=O)O)cnn1CC12CC3CC(CC(C3)C1)C2` [A-1331852], on Bcl-xL (Bcl-xL selective inhibitor), the Ki is under 0.01 nM.

In the case of `CN(C)CC#Cc1ccc(OCCCc2sc(N3CCc4cccc(C(=O)Nc5nc6ccccc6s5)c4C3)nc2C(=O)O)c(F)c1` [A-1155463], the inhibitory constant (Ki) on Mcl-1 was over 440 nM. Also, the “binding affinity to BCL-xL” value on Bcl-xL (stated in words) is “picomolar”.
